Experimental data taken from patent US8299115B2, “Pyrrole-2-carboxamide derivatives as glucokinase activators, their process and pharmaceutical application” (priority 2007, dated 2012).

How the values were obtained:
[1] = target: T1, human recombinant glucokinase (Homo sapiens, UniProt P35557); assay: Glucokinase activation, coupled enzymatic assay (G6PD/NADH) at 5 mM glucose; type: biochemical; details: read-out: EC50 for GK activation at 5 mM glucose
T1 sequence (P35557 1-465): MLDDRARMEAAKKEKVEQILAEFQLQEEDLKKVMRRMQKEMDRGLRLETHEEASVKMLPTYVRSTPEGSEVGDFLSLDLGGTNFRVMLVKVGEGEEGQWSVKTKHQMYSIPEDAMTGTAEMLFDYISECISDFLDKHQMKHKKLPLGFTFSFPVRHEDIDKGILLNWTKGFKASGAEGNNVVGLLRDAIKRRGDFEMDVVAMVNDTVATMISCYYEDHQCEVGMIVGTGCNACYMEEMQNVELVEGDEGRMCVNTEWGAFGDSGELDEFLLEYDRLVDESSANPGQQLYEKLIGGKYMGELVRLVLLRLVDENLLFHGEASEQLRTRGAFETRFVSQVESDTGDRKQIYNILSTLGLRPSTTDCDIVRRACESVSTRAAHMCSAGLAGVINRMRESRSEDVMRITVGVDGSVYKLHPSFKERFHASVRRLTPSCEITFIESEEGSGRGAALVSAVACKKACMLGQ
Excerpt: (§1) Glucokinase (GK) activity, in vitro, has been measured using a coupled enzymatic assay (Ref: Hariharan et al (1997) Diabetes 46: 11-16). GK catalyzes the first step, the conversion of glucose to glucose-6-phosphate (G6P) in the presence of ATP. G6P in turn is converted by glucose-6-phosphate dehydrogenase (G6PD) to 6-phosphogluconate, a process that requires NAD, resulting in NADH formation. Since the GK-catalyzed step is the rate-limiting step of this coupled enzymatic process, the rate of accumulation of 6-phosphogluconate and NADH is directly proportional to the rate of glucose phosphorylation by GK. The rate of the GK-catalyzed reaction can therefore be measured by monitoring the increase in NADH absorbance at 340 nm.
(§2) The assay is carried out according to the protocol outlined in Hariharan et al (1997), Diabetes 46: 11-16. Briefly, the test compounds are incubated in a reaction mix containing 25 mM HEPES (pH 7.2), 10 mM MgCl2, 100 mM KCl, 5 mM ATP, 2 mM DTT, 0.5 mM NAD, 1 U/ml Leuconostoc mesenteroides G6PD, 0.3 U/ml of purified human recombinant GK, and different concentrations of glucose. Enzymatic activity is calculated from the initial reaction velocity, measured from the change in NADH absorbance as a function of time.
Compounds described in formula (I), in concentration ranges from 1.0 nM to 500 μM, are tested in the purified human recombinant glucokinase assay described above.
A compound is considered to be a glucokinase activator if it, in its testable range of concentrations, yields a higher rate of glucose phosphorylation than in its absence at a particular glucose concentration, for example at 5 mM glucose.

[2] = target: T1, human recombinant glucokinase; assay: Characterization of partial glucokinase activators: dose-dependent effect on S0.5 of glucokinase for glucose (% ΔS0.5); type: biochemical; details: for Emax: % change of S0.5 at saturating compound concentration, read-out: % Emax (with respect to % ΔS0.5); for EC50: sigmoidal fit of % ΔS0.5 vs log compound concentration, read-out: EC50 (with respect to % ΔS0.5)
Excerpt: as §1, §2
Compounds of interest from the general formula (I) are tested in the in vitro GK enzymatic assay to monitor dose-dependent effect on glucokinase activation (in kinetic mode), as described above, at various glucose concentrations. The maximum efficacy (Emax) and potency (EC50) for the assessment of partial glucokinase activation have been defined in our co-pending application 409/CHE/2007. The same definitions have also been used here. The S0.5 of glucokinase for glucose at different concentration of each compound of interest is calculated from the following modified version of the Michaelis-Menten equation, V=Vmax[S]^n/(S0.5^n+[S]^n), where [S] is the glucose concentration and n is the Hill coefficient (taken as 1.7 to account for the sigmoidal kinetics of glucokinase with respect to glucose). The S0.5 is plotted against the log of the compound concentration. The change in the S0.5 of glucokinase (ΔS0.5) for glucose is calculated by subtracting the S0.5 at each concentration of the compound from the S0.5 in the vehicle control. The ΔS0.5 is then normalized to a percent scale, where the S0.5 in the vehicle control is set to 0% and 0 mM glucose is set to 100%. The % ΔS0.5 is then plotted against the log of the compound concentration. The EC50 of % change in S0.5 is obtained from the sigmoidal fit of the data.

[3] = cited from earlier work

Row | EC50 [1] | Emax [2] | EC50 [2] | Compound | also measured
1 | 0.63 µM |  |  | CC(C)C(O)c1cc(C(=O)Nc2ncc(Cl)s2)n(Cc2ccc(F)c(F)c2)c1 (stereo not shown) [Example C2, 1-(3,4-Difluoro-benzyl)-4-(1-hydroxy-2-methyl-propyl)-1H-pyrrole-2-carboxylic acid (5-chloro-thiazol-2-yl)-amide] | 
2 |  |  |  | Ro-28-1675 [reference compound] | S0.5 of glucokinase for glucose in presence of activator ([2]; drop from approximate 8 mM glucose, enzyme-based in vitro assay): ≤ 1.0 mM; hypoglycemia in animal efficacy models ([3]; Kamata et al 2004): cause hypoglycemia
3 | 0.6 µM |  |  | CC(C)C(O)c1cc(C(=O)Nc2nccs2)n(Cc2ccc(S(C)(=O)=O)cc2)c1 (stereo not shown) [Example C6, 4-(1-Hydroxy-2-methyl-propyl)-1-(4-methanesulfonyl-benzyl)-1H-pyrrole-2-carboxylic acid thiazol-2-ylamide] | 
4 |  | 40% | 0.22 µM | CC(C)Cc1cc(C(=O)Nc2ncc(Cl)s2)n(Cc2ccc(F)c(C(F)(F)F)c2)c1 [Example A31, 1-(4-Fluoro-3-trifluoromethyl-benzyl)-4-isobutyl-1H-pyrrole-2-carboxylic acid (5-chloro-thiazol-2-yl)-amide] | 
5 | 0.3 µM |  |  | CS(=O)(=O)c1ccc(Cc2cc(C(=O)Nc3nc(CC(=O)O)c(Cl)s3)n(Cc3ccc(F)c(F)c3)c2)cc1 [Example E23, (5-Chloro-2-{[1-(3,4-difluoro-benzyl)-4-(4-methanesulfonyl-benzyl)-1H-pyrrole-2-carbonyl]-amino}-thiazol-4-yl)-acetic acid] | 
6 |  |  |  | O=C(Nc1ncc(F)s1)[C@H](CC1CCOCC1)c1ccc(S(=O)(=O)C2CC2)cc1 [PSN-GK1] | hypoglycemic potential ([3]; at higher dose, Fyfe 2007): hypoglycemic potential
7 |  | 70% | 0.3 µM | CCOC(=O)Cc1nc(NC(=O)c2cc(CC(C)C)cn2Cc2ccc(F)c(F)c2)sc1Cl [Example A116, (5-Chloro-2-{[1-(3,4-difluoro-benzyl)-4-isobutyl-1H-pyrrole-2-carbonyl]-amino}-thiazol-4-yl)-acetic acid ethyl ester] | 
8 |  | 65% | 0.2 µM | CC(C)Cc1cc(C(=O)Nc2ncc(Cl)s2)n(Cc2ccc(F)c(F)c2)c1 [Example A40, 1-(3,4-Difluoro-benzyl)-4-isobutyl-1H-pyrrole-2-carboxylic acid (5-chloro-thiazol-2-yl)-amide] | 
9 | 0.43 µM |  |  | CC(C)C(O)c1cc(C(=O)Nc2ncc(F)s2)n(Cc2ccc(S(C)(=O)=O)cc2)c1 (stereo not shown) [Example C8, 4-(1-Hydroxy-2-methyl-propyl)-1-(4-methanesulfonyl-benzyl)-1H-pyrrole-2-carboxylic acid (5-fluoro-thiazol-2-yl)-amide] | 
